Results reported in patent US20230374015A1, “INHIBITORS OF FIBROBLAST GROWTH FACTOR RECEPTOR KINASES” (Kinnate Biopharma Inc., priority 2020, published 2023).

Each molecule was assayed against FGFR2 (Homo sapiens, UniProt P21802) (assay: FGFR2 Kinase Protocol - Condition 2 (Reaction Biology HotSpot radiometric kinase assay, no preincubation)). Conditions: poly[Glu:Tyr] (4:1) 0.2 mg/ml, ATP 100 microM, 2 hr room temperature.
Assay type: biochemical
Outline: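 Ten-point, 3-fold compound dilutions were tested against wildtype or V564F FGFR2 with 100 µM ATP (33P-labelled), no preincubation, and 0.2 mg/ml poly[Glu:Tyr] (4:1) substrate. After 2 hr at room temperature, incorporation was read on P81 filter paper; IC50 fitted from activity remaining relative to vehicle.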

Sequence of FGFR2 (P21802 22-821): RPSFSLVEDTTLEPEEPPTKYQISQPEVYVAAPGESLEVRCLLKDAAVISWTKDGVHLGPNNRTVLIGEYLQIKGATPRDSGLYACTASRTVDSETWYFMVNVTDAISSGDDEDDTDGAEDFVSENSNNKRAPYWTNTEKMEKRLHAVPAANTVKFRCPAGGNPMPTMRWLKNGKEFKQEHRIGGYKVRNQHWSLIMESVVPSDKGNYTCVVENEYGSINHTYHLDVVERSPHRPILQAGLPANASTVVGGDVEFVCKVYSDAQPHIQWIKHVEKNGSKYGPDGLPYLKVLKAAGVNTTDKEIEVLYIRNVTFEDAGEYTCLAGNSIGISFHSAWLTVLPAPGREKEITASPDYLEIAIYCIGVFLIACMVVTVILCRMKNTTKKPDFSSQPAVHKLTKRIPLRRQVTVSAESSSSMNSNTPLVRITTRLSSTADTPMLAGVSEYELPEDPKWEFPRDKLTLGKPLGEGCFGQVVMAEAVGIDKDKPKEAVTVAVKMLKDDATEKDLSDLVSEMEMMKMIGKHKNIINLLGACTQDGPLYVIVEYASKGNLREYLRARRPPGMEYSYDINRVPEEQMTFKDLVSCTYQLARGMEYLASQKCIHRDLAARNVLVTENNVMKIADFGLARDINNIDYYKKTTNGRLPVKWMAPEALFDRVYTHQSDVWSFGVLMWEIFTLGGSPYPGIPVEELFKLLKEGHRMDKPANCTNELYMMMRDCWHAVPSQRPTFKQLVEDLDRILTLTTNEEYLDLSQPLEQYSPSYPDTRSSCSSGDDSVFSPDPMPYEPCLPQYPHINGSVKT

IC50, ≤ 100 nM:
[2H]C([2H])([2H])OC[C@H]1C[C@H](n2nc(C#Cc3c(F)cc4c(ncn4C)c3F)c3c(N)ncnc32)CN1C(=O)C=C [Example 134, 1-[(2R,4S)-4-[4-Amino-3-[2-(4,6-difluoro-1-methyl-1,3-benzodiazol-5-yl)ethynyl]pyrazolo[3,4-d]pyrimidin-1-yl]-2-[(2H3)methoxymethyl]pyrrolidin-1-yl]prop-2-en-1-one]
[2H]C([2H])([2H])OC[C@H]1C[C@H](n2nc(C#Cc3cc4ncn(CC)c4cc3Cl)c3c(N)ncnc32)CN1C(=O)C=C [Example 135, 1-[(2R,4S)-4-[4-Amino-3-[2-(6-chloro-1-ethyl-1,3-benzodiazol-5-yl)ethynyl]pyrazolo[3,4-d]pyrimidin-1-yl]-2-[(2H3)methoxymethyl]pyrrolidin-1-yl]prop-2-en-1-one]
C=CC(=O)N1CC[C@H](n2nc(C#Cc3cc4ncn(CC)c4c(F)c3Cl)c3c(N)nccc32)C1 [Example 136, (S)-1-(3-(4-Amino-3-((6-chloro-1-ethyl-7-fluoro-1H-benzo[d]imidazol-5-yl)ethynyl)-1H-pyrazolo[4,3-c]pyridin-1-yl)pyrrolidin-1-yl)prop-2-en-1-one]
C=CC(=O)N1CC[C@H](n2nc(C#Cc3cc4ncn(C)c4cc3Cl)c3c(N)nccc32)C1 [Example 137, (S)-1-(3-(4-Amino-3-((6-chloro-1-methyl-1H-benzo[d]imidazol-5-yl)ethynyl)-1H-pyrazolo[4,3-c]pyridin-1-yl)pyrrolidin-1-yl)prop-2-en-1-one]
C=CC(=O)N1C[C@@H](n2nc(C#Cc3cc4ncn(C5CC5)c4cc3Cl)c3c(N)nccc32)C[C@@H]1COC [Example 138, 1-[(2R,4S)-4-{4-Amino-3-[2-(6-chloro-1-cyclopropyl-1,3-benzodiazol-5-yl)ethynyl]pyrazolo[4,3-c]pyridin-1-yl}-2-(methoxymethyl)pyrrolidin-1-yl]prop-2-en-1-one]
C=CC(=O)N1C[C@@H](n2nc(C#Cc3c(F)cc4c(ncn4C)c3F)c3c(N)ncnc32)C[C@@H]1COC(F)F [Example 139, 1-[(2R,4S)-4-{4-Amino-3-[2-(4,6-difluoro-1-methyl-1,3-benzodiazol-5-yl)ethynyl]pyrazolo[3,4-d]pyrimidin-1-yl}-2-[(difluoromethoxy)methyl]pyrrolidin-1-yl]prop-2-en-1-one]
C=CC(=O)N1CC[C@H](n2nc(C#Cc3cc4ncn(C)c4cc3F)c3c(N)ncnc32)C1 [Example 140, 1-[(3S)-3-{4-Amino-3-[2-(6-fluoro-1-methyl-1,3-benzodiazol-5-yl)ethynyl]pyrazolo[3,4-d]pyrimidin-1-yl}pyrrolidin-1-yl]prop-2-en-1-one]
C=CC(=O)N1CC[C@H](n2nc(C#Cc3cc4ncn(C)c4cc3F)c3c(N)nccc32)C1 [Example 141, 1-[(3S)-3-{4-Amino-3-[2-(6-fluoro-1-methyl-1,3-benzodiazol-5-yl)ethynyl]pyrazolo[4,3-c]pyridin-1-yl}pyrrolidin-1-yl]prop-2-en-1-one]
C=CC(=O)N1CC[C@H](n2cc(C#Cc3cc4ncn(C)c4cc3F)c3c(N)ncnc32)C1 [Example 142, (S)-1-(3-(4-Amino-5-((6-fluoro-1-methyl-1H-benzo[d]imidazol-5-yl)ethynyl)-7H-pyrrolo[2,3-d]pyrimidin-7-yl)pyrrolidin-1-yl)prop-2-en-1-one]
C=CC(=O)N1CC[C@H](n2cc(C#Cc3cc4ncn(CC)c4cc3Cl)c3c(N)ncnc32)C1 [Example 143, (S)-1-(3-(4-Amino-5-((6-chloro-1-ethyl-1H-benzo[d]imidazol-5-yl)ethynyl)-7H-pyrrolo[2,3-d]pyrimidin-7-yl)pyrrolidin-1-yl)prop-2-en-1-one]
C=CC(=O)N1CC[C@H](n2nc(C#Cc3cc4ncn(CC)c4c(F)c3Cl)c3c(N)ncnc32)C1 [Example 144, 1-[(3S)-3-{4-Amino-3-[2-(6-chloro-1-ethyl-7-fluoro-1,3-benzodiazol-5-yl)ethynyl]pyrazolo[3,4-d]pyrimidin-1-yl}pyrrolidin-1-yl]prop-2-en-1-one]
C=CC(=O)N1CC[C@H](n2nc(C#Cc3cc4ncn(C)c4c(F)c3Cl)c3c(N)ncnc32)C1 [Example 145, (S)-1-(3-(4-Amino-3-((6-chloro-7-fluoro-1-methyl-1H-benzo[d]imidazol-5-yl)ethynyl)-1H-pyrazolo[3,4-d]pyrimidin-1-yl)pyrrolidin-1-yl)prop-2-en-1-one]
C=CC(=O)N1CC[C@H](n2nc(C#Cc3cc4ncn(C5CC5)c4cc3F)c3c(N)ncnc32)C1 [Example 146, (S)-1-(3-(4-Amino-3-((1-cyclopropyl-6-fluoro-1H-benzo[d]imidazol-5-yl)ethynyl)-1H-pyrazolo[3,4-d]pyrimidin-1-yl)pyrrolidin-1-yl)prop-2-en-1-one]
C=CC(=O)N1CC[C@H](n2nc(C#Cc3cc4ncn(C)c4cc3Cl)c3c(N)ncnc32)C1 [Example 147, 1-[(3S)-3-{4-Amino-3-[2-(6-chloro-1-methyl-1,3-benzodiazol-5-yl)ethynyl]pyrazolo[3,4-d]pyrimidin-1-yl}pyrrolidin-1-yl]prop-2-en-1-one]
C=CC(=O)N1CC[C@H](n2nc(C#Cc3cc4ncn(C)c4c(F)c3Cl)c3c(N)nccc32)C1 [Example 148, 1-[(3S)-3-{4-Amino-3-[2-(6-chloro-7-fluoro-1-methyl-1,3-benzodiazol-5-yl)ethynyl]pyrazolo[4,3-c]pyridin-1-yl}pyrrolidin-1-yl]prop-2-en-1-one]
C=CC(=O)N1CC[C@H](n2nc(C#Cc3cc4ncn(C5CC5)c4cc3F)c3c(N)nccc32)C1 [Example 149, 1-[(3S)-3-{4-Amino-3-[2-(1-cyclopropyl-6-fluoro-1,3-benzodiazol-5-yl)ethynyl]pyrazolo[4,3-c]pyridin-1-yl}pyrrolidin-1-yl]prop-2-en-1-one]
C=CC(=O)N1CC[C@H](n2nc(C#Cc3cc4ncn(CC)c4cc3F)c3c(N)nccc32)C1 [Example 150, 1-[(3S)-3-{4-Amino-3-[2-(1-ethyl-6-fluoro-1,3-benzodiazol-5-yl)ethynyl]pyrazolo[4,3-c]pyridin-1-yl}pyrrolidin-1-yl]prop-2-en-1-one]
C=CC(=O)N1C[C@@H](n2nc(C#Cc3cc4ncn(C)c4cc3F)c3c(N)ncnc32)C[C@@H]1C [Example 151, 1-((2S,4S)-4-(4-amino-3-((1-methyl-6-fluoro-1H-benzo[d]imidazol-5-yl)ethynyl)-1H-pyrazolo[3,4-d]pyrimidin-1-yl)-2-methylpyrrolidin-1-yl)prop-2-en-1-one]
C=CC(=O)N1CC[C@H](n2nc(C#Cc3cc4ncn(CC)c4cc3F)c3c(N)ncnc32)C1 [Example 152, 1-[(3S)-3-{4-Amino-3-[2-(1-ethyl-6-fluoro-1,3-benzodiazol-5-yl)ethynyl]pyrazolo[3,4-d]pyrimidin-1-yl}pyrrolidin-1-yl]prop-2-en-1-one]
C=CC(=O)N1CC[C@H](n2nc(C#Cc3cc4ncn(CC)c4c(F)c3F)c3c(N)ncnc32)C1 [Example 153, 1-[(3S)-3-{4-Amino-3-[2-(1-ethyl-6,7-difluoro-1,3-benzodiazol-5-yl)ethynyl]pyrazolo[3,4-d]pyrimidin-1-yl}pyrrolidin-1-yl]prop-2-en-1-one]
